Calls of active or inactive are those of the source. Unless noted, the calls are words filed in the database; no cut-off is given here.
Legend:
Assay type in all cases: functional
Aspergillus flavus [1] = test: Antimicrobial activity against Aspergillus flavus MTCC 1973 at 500 ug/ml after 72 hrs by cup plate method; conditions: MTCC 1973, 72 h, read-out: IZ
Pseudomonas aeruginosa [2] = test: Antimicrobial activity against Pseudomonas aeruginosa MTCC 1688 at 500 ug/ml after 24 hrs by cup plate method; conditions: MTCC 1688, 24 h, read-out: IZ
Aspergillus terreus [3] = test: Antimicrobial activity against Aspergillus terreus MTCC 1782 at 750 ug/ml after 72 hrs by cup plate method; conditions: MTCC 1782, 72 h, read-out: IZ
Klebsiella pneumoniae [4] = test: Antimicrobial activity against Klebsiella pneumoniae NCTC 13368 at 1000 ug/ml after 24 hrs by cup plate method; conditions: NCTC 13368, 24 h, read-out: IZ
Aspergillus flavus [5] = test: Antimicrobial activity against Aspergillus flavus MTCC 1973 at 1000 ug/ml after 72 hrs by cup plate method; conditions: MTCC 1973, 72 h, read-out: IZ
Escherichia coli [6] = test: Antimicrobial activity against Escherichia coli MTCC 723 at 500 ug/ml after 24 hrs by cup plate method; conditions: MTCC 723, 24 h, read-out: IZ
Staphylococcus aureus [7] = test: Antimicrobial activity against Staphylococcus aureus ATCC 29513 at 750 ug/ml after 24 hrs by cup plate method; conditions: ATCC 29513, 24 h, read-out: IZ
Escherichia coli [8] = test: Antimicrobial activity against Escherichia coli MTCC 723 at 750 ug/ml after 24 hrs by cup plate method; conditions: MTCC 723, 24 h, read-out: IZ
Klebsiella pneumoniae [9] = test: Antimicrobial activity against Klebsiella pneumoniae NCTC 13368 at 750 ug/ml after 24 hrs by cup plate method; conditions: NCTC 13368, 24 h, read-out: IZ
Aspergillus oryzae [10] = test: Antimicrobial activity against Aspergillus oryzae MTCC 3567 at 1000 ug/ml after 72 hrs by cup plate method; conditions: MTCC 3567, 72 h, read-out: IZ
Aspergillus oryzae [11] = test: Antimicrobial activity against Aspergillus oryzae MTCC 3567 at 500 ug/ml after 72 hrs by cup plate method; conditions: MTCC 3567, 72 h, read-out: IZ
Aspergillus flavus [12] = test: Antimicrobial activity against Aspergillus flavus MTCC 1973 at 750 ug/ml after 72 hrs by cup plate method; conditions: MTCC 1973, 72 h, read-out: IZ
Aspergillus terreus [13] = test: Antimicrobial activity against Aspergillus terreus MTCC 1782 at 500 ug/ml after 72 hrs by cup plate method; conditions: MTCC 1782, 72 h, read-out: IZ
Staphylococcus aureus [14] = test: Antimicrobial activity against Staphylococcus aureus ATCC 29513 at 1000 ug/ml after 24 hrs by cup plate method; conditions: ATCC 29513, 24 h, read-out: IZ
Klebsiella pneumoniae [15] = test: Antimicrobial activity against Klebsiella pneumoniae NCTC 13368 at 500 ug/ml after 24 hrs by cup plate method; conditions: NCTC 13368, 24 h, read-out: IZ
Pseudomonas aeruginosa [16] = test: Antimicrobial activity against Pseudomonas aeruginosa MTCC 1688 at 750 ug/ml after 24 hrs by cup plate method; conditions: MTCC 1688, 24 h, read-out: IZ
Staphylococcus aureus [17] = test: Antimicrobial activity against Staphylococcus aureus ATCC 29513 at 500 ug/ml after 24 hrs by cup plate method; conditions: ATCC 29513, 24 h, read-out: IZ
Aspergillus niger [18] = test: Antimicrobial activity against Aspergillus niger MTCC 281 at 1000 ug/ml after 72 hrs by cup plate method; conditions: MTCC 281, 72 h, read-out: IZ
Pseudomonas aeruginosa [19] = test: Antimicrobial activity against Pseudomonas aeruginosa MTCC 1688 at 1000 ug/ml after 24 hrs by cup plate method; conditions: MTCC 1688, 24 h, read-out: IZ
[20] = Antioxidant activity assessed as metal chelating activity by measuring inhibition of ferrozine-Fe2+ complex formation at 25 to 100 ug/ml
Aspergillus oryzae [21] = test: Antimicrobial activity against Aspergillus oryzae MTCC 3567 at 750 ug/ml after 72 hrs by cup plate method; conditions: MTCC 3567, 72 h, read-out: IZ
Escherichia coli [22] = test: Antimicrobial activity against Escherichia coli MTCC 723 at 1000 ug/ml after 24 hrs by cup plate method; conditions: MTCC 723, 24 h, read-out: IZ
Aspergillus niger [23] = test: Antimicrobial activity against Aspergillus niger MTCC 281 at 500 ug/ml after 72 hrs by cup plate method; conditions: MTCC 281, 72 h, read-out: IZ
Aspergillus terreus [24] = test: Antimicrobial activity against Aspergillus terreus MTCC 1782 at 1000 ug/ml after 72 hrs by cup plate method; conditions: MTCC 1782, 72 h, read-out: IZ
Aspergillus niger [25] = test: Antimicrobial activity against Aspergillus niger MTCC 281 at 750 ug/ml after 72 hrs by cup plate method; conditions: MTCC 281, 72 h, read-out: IZ
[26] = Antioxidant activity assessed as ferric ion reducing activity at 75 ug/ml by FRAP assay
[27] = test system: Radical scavenging activity; test: Antioxidant activity assessed as DPPH radical scavenging activity at 100 ug/ml
[28] = Antioxidant activity assessed as ferric ion reducing activity at 100 ug/ml by FRAP assay

Row | SMILES | zone of inhibition at 500 µg/mL (Aspergillus flavus [1]) | zone of inhibition at 500 µg/mL (Pseudomonas aeruginosa [2]) | zone of inhibition at 750 µg/mL (Aspergillus terreus [3]) | zone of inhibition at 1000 µg/mL (Klebsiella pneumoniae [4]) | zone of inhibition at 1000 µg/mL (Aspergillus flavus [5]) | zone of inhibition at 500 µg/mL (Escherichia coli [6]) | zone of inhibition at 750 µg/mL (Staphylococcus aureus [7]) | zone of inhibition at 750 µg/mL (Escherichia coli [8]) | zone of inhibition at 750 µg/mL (Klebsiella pneumoniae [9]) | zone of inhibition at 1000 µg/mL (Aspergillus oryzae [10]) | zone of inhibition at 500 µg/mL (Aspergillus oryzae [11]) | zone of inhibition at 750 µg/mL (Aspergillus flavus [12]) | zone of inhibition at 500 µg/mL (Aspergillus terreus [13]) | zone of inhibition at 1000 µg/mL (Staphylococcus aureus [14]) | zone of inhibition at 500 µg/mL (Klebsiella pneumoniae [15]) | zone of inhibition at 750 µg/mL (Pseudomonas aeruginosa [16]) | zone of inhibition at 500 µg/mL (Staphylococcus aureus [17]) | zone of inhibition at 1000 µg/mL (Aspergillus niger [18]) | zone of inhibition at 1000 µg/mL (Pseudomonas aeruginosa [19]) | Activity [20] | other results
1 | Nc1nc(=O)[nH]c2c1C(c1c(-c3ccccc3)[nH]c3ccc(Cl)cc13)C=C(c1ccc(Cl)cc1)O2 (stereo unspecified) | 6 mm | 9 mm | 9 mm | 9 mm | 4 mm | 9 mm | 13 mm | 10 mm | 9 mm | 9 mm | 9 mm | 6 mm | 9 mm | 14 mm | 9 mm | 9 mm | 13 mm | 13 mm | 9 mm | Active | zone of inhibition at 750 µg/mL (Aspergillus oryzae [21]): 9 mm; zone of inhibition at 1000 µg/mL (Escherichia coli [22]): 10 mm; zone of inhibition at 500 µg/mL (Aspergillus niger [23]): 12 mm; zone of inhibition at 1000 µg/mL (Aspergillus terreus [24]): 9 mm; zone of inhibition at 750 µg/mL (Aspergillus niger [25]): 12 mm; Activity [26]: Active; Activity [27]: 75.5%
2 | Cc1ccc2[nH]c(-c3ccccc3)c(C3C=C(c4ccccc4)Oc4nc[nH]c(=O)c43)c2c1 (stereo unspecified) | 8 mm | 5 mm | 3 mm | 5 mm | 8 mm | 8 mm | 10 mm | 6 mm | 5 mm | 9 mm | 9 mm | 8 mm | 4 mm | 10 mm | 5 mm | 5 mm | 11 mm | 4 mm | 5 mm | Active | zone of inhibition at 750 µg/mL (Aspergillus oryzae [21]): 9 mm; zone of inhibition at 1000 µg/mL (Escherichia coli [22]): 6 mm; zone of inhibition at 500 µg/mL (Aspergillus niger [23]): 5 mm; zone of inhibition at 1000 µg/mL (Aspergillus terreus [24]): 3 mm; zone of inhibition at 750 µg/mL (Aspergillus niger [25]): 4 mm; Activity [28]: Active
3 | Nc1n[nH]c2c1C(c1c(-c3ccccc3)[nH]c3ccc(Cl)cc13)C=C(c1ccc(Cl)cc1)O2 (stereo unspecified) | 9 mm | 10 mm | 9 mm | 13 mm | 5 mm | 13 mm | 14 mm | 13 mm | 13 mm | 10 mm | 10 mm | 9 mm | 9 mm | 14 mm | 13 mm | 9 mm | 14 mm | 11 mm | 9 mm | Active | zone of inhibition at 750 µg/mL (Aspergillus oryzae [21]): 10 mm; zone of inhibition at 1000 µg/mL (Escherichia coli [22]): 14 mm; zone of inhibition at 500 µg/mL (Aspergillus niger [23]): 10 mm; zone of inhibition at 1000 µg/mL (Aspergillus terreus [24]): 8 mm; zone of inhibition at 750 µg/mL (Aspergillus niger [25]): 10 mm; Activity [28]: Active
4 | Nc1n[nH]c2c1C(c1c(-c3ccccc3)[nH]c3ccccc13)C=C(c1ccc(Cl)cc1)O2 (stereo unspecified) | 9 mm | 10 mm | 6 mm | 5 mm | 9 mm | 13 mm | 4 mm | 13 mm | 5 mm | 13 mm | 12 mm | 9 mm | 8 mm | 3 mm | 5 mm | 10 mm | 5 mm | 3 mm | 10 mm | Active | zone of inhibition at 750 µg/mL (Aspergillus oryzae [21]): 12 mm; zone of inhibition at 1000 µg/mL (Escherichia coli [22]): 14 mm; zone of inhibition at 500 µg/mL (Aspergillus niger [23]): 7 mm; zone of inhibition at 1000 µg/mL (Aspergillus terreus [24]): 11 mm; zone of inhibition at 750 µg/mL (Aspergillus niger [25]): 5 mm; Activity [26]: Active
5 | Cc1ccc(C2=CC(c3c(-c4ccccc4)[nH]c4ccc(Cl)cc34)c3c(N)n[nH]c3O2)cc1 (stereo unspecified) | 3 mm | 12 mm | 4 mm | 12 mm | 3 mm | 4 mm | 14 mm | 2 mm | 12 mm | 5 mm | 8 mm | 3 mm | 5 mm | 14 mm | 12 mm | 12 mm | 14 mm | 0 mm | 13 mm | Active | zone of inhibition at 750 µg/mL (Aspergillus oryzae [21]): 5 mm; zone of inhibition at 1000 µg/mL (Escherichia coli [22]): 2 mm; zone of inhibition at 500 µg/mL (Aspergillus niger [23]): 9 mm; zone of inhibition at 1000 µg/mL (Aspergillus terreus [24]): 4 mm; zone of inhibition at 750 µg/mL (Aspergillus niger [25]): 8 mm; Activity [28]: Active
